Data on five molecules can be found in patent US5708015A, “Method for using pharmaceutical compositions containing 2-(2-alkyphenyl-amino)-thiazolines as adrenergic agents” (Allergan, priority 1996, dated 1998).

In assay [1] the target is α1 adrenergic receptor (human cerebral cortex membranes). The assay is described as follows: Alpha1 (human brain) receptor binding assay. The note with it: 22° C., 30 minutes, [3H] radioligand. The source says:
(§1) The present compound or compounds may be included in a medication composition together with one or more other components to provide a medication composition which can be effectively administered. Such other components, e.g., carriers, anti-oxidants, bulking agents and the like, may be chosen from those materials which are conventional and well known in the art, e.g., as being included in medication compositions with α2 agonists. Whereas the effective dose of the compounds of the present compositions will depend on the nature of the host mammal and the specific diesease or condition treated it is anticipated that an effective daily dose of the compounds is in the range of 1 microgramm--10 mg per kg/body weight of the host. The ability of the compounds within the present invention to bind strongly and selectively to α2 adrenergic receptors in preference over α1 adrenergic receptors was confirmed by the following assay procedures which are generally recognized in the art to provide pertinent information with respect to the adrenergic activity of the compounds assayed: alpha1 (human brain) assay, alpha2 A (HT-29 cells) assay, and alpha2 B (rat kidney) assay. A description of these assay procedures is as follows.
Membrane preparation: Membrane suspensions were prepared from human cerebral cortex (HCC), HT-29 cells (HT) and rat kidney cortex (RtKC), as applicable. Tissues were homogenized in iced-cold buffer [250 mM sucrose, 5 mM tris, pH 7.4 (RtKC), or 50 mM Tris-HCl, 5 mM EDTA, pH 7.4 (HCC, HT)] with a Polytron homogenizer for 30 secs at setting #7, and centrifuged for 10 minutes at 300×g at 4° C. The supernatant was diluted 1:2 with 50 mM Tris-HCl buffer, pH 7.4 (RkCC, HCC) or pH 8.0 (HT) then centrifuged at 49,000×g for 15-20 minutes. The pellet fraction was washed 3 times (resuspended in Tris-HCl buffer and centrifuged for 15-20 minutes at 49,000×g). The pellet was then stored at -80° C. until the binding assay. Binding studies: The radioligands [^3 H] rauwolscine (specific activity 80 Ci/mmol) and [^3 H] prazosin (specific activity 77 Ci/mmol) were obtained from New England Nuclear, Boston, Mass. Frozen membrane pellet was resuspended in glycine glycine buffer, pH 7.6. […] The filters were then oven dried and transferred to scintillation vials containing 5 mls of Beckman's Ready Protein^R scintillation cocktail for counting. […] Protein concentrations were determined with a protein assay kit from Bio Rad. Binding isotherms, equilibrium dissociation and affinity constants were analyzed and determined by the non-linear least squares curve fitting program AccuFit Competition/Saturation by Beckman. […]

Assay [2] addresses T1, α2 A adrenergic receptor (HT-29 cells) (Homo sapiens, UniProt P08913).
T1 construct: Membrane suspensions were prepared from human cerebral cortex (HCC), HT-29 cells (HT) and rat kidney cortex (RtKC); endogenous in cells; host or cells: HT-29 cells
The assay is described as follows: Alpha2 A (HT-29 cells) receptor binding assay.
Description: as §1
(§2) Membrane preparation: Membrane suspensions were prepared from human cerebral cortex (HCC), HT-29 cells (HT) and rat kidney cortex (RtKC), as applicable. Tissues were homogenized in iced-cold buffer [250 mM sucrose, 5 mM tris, pH 7.4 (RtKC), or 50 mM Tris-HCl, 5 mM EDTA, pH 7.4 (HCC, HT)] with a Polytron homogenizer for 30 secs at setting #7, and centrifuged for 10 minutes at 300×g at 4° C. The supernatant was diluted 1:2 with 50 mM Tris-HCl buffer, pH 7.4 (RkCC, HCC) or pH 8.0 (HT) then centrifuged at 49,000×g for 15-20 minutes. The pellet fraction was washed 3 times (resuspended in Tris-HCl buffer and centrifuged for 15-20 minutes at 49,000×g). The pellet was then stored at -80° C. until the binding assay. Binding studies: The radioligands [^3 H] rauwolscine (specific activity 80 Ci/mmol) and [^3 H] prazosin (specific activity 77 Ci/mmol) were obtained from New England Nuclear, Boston, Mass. Frozen membrane pellet was resuspended in glycine glycine buffer, pH 7.6. Membrane protein homogenate (150-300 μg) was incubated with radioligand under the following conditions: 22° C., 30 minutes (HCC, HT), 0° C., 120 minutes (RtKC), in a final volume of 500 μl. At the end of the incubation period, the samples were filtered through glass fiber filters (Whatman GF/B) in a 96-well cell harvester and rapidly washed four times with 4 mls of iced-cold 50 mM Tris-HCl buffer. The filters were then oven dried and transferred to scintillation vials containing 5 mls of Beckman's Ready Protein^R scintillation cocktail for counting. Non-specific binding was defined by 10 μM phentolamine. Protein concentrations were determined with a protein assay kit from Bio Rad. Binding isotherms, equilibrium dissociation and affinity constants were analyzed and determined by the non-linear least squares curve fitting program AccuFit Competition/Saturation by Beckman.
(§3) As it will be recognized by those skilled in the art from the forogoing descriptions, the described assays are radioligand assays which measure the binding of the test compound to the respective α1 or α2 receptor. […]

Assay [3] addresses T2, α2 B adrenergic receptor (rat kidney cortex membranes) (Rattus norvegicus, UniProt P19328).
T2 construct: Membrane suspensions were prepared from human cerebral cortex (HCC), HT-29 cells (HT) and rat kidney cortex (RtKC); from tissue; host or cells: rat kidney cortex membranes
T2 sequence (P19328 1-453): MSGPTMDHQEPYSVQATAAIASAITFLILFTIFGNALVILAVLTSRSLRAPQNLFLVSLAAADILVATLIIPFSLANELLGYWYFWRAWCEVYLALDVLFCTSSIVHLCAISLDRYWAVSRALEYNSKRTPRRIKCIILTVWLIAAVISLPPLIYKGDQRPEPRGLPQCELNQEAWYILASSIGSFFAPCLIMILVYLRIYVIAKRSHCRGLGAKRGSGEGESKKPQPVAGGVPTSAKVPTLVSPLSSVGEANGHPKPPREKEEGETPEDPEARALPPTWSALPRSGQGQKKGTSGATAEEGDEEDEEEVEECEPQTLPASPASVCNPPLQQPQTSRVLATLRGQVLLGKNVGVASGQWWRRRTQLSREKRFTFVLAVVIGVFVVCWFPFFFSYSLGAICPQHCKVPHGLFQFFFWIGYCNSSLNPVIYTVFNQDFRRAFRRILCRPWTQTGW
The assay is described as follows: Alpha2 B (rat kidney) receptor binding assay.
Description: as §1, §2, §3

Like-named read-outs stand apart in the source and are kept apart here.

T1 sequence (P08913 whole entry): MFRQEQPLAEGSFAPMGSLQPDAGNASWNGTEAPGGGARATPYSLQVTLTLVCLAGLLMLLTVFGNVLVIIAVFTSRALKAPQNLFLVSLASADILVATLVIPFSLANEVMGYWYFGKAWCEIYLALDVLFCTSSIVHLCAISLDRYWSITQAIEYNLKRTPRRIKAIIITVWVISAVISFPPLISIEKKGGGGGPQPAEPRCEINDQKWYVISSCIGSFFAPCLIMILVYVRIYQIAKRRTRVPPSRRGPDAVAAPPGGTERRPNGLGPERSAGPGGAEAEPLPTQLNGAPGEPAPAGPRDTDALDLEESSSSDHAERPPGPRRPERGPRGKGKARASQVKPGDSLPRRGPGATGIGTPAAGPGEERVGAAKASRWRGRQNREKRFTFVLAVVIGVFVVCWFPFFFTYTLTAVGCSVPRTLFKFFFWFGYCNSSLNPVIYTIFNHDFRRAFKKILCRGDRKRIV

What is called Ki is the equilibrium dissociation constant of an inhibitor or competing ligand from its target. Take `Cc1cccc(NC2=NCCO2)c1C` [Compound 1, 2-[2,3-Dimethylphenylamino)-oxazoline]: the Ki turned out to be 1210 nM in assay [1], 5.1 nM in assay [2] and 8.5 nM in assay [3].
Regarding `Cc1ccccc1NC1=NCCO1` [Compound 1a], the Ki in assay [1] turned out to be 7400 nM; in assay [2], 35.7 nM; in assay [3] (rat kidney cortex membranes, 0° C., 120 minutes, [3H] radioligand, read-out: α2 B Ki), 208 nM.
Regarding `c1cc2c(c(NC3=NCCO3)c1)CCCC2` [Compound 2, 2-(5,6,7,8-tetrahydronaphthylamino)-oxazoline], the Ki amounted to 2.2 nM in assay [2] and 6.2 nM in assay [3].
Turning to `Cc1cccc(N=C2NCCN2)c1C` [Compound 3, 2-(2,3-Dimethylphenylimino)-imidazolidine], the Ki was found to be 434 nM in assay [1], 5.8 nM in assay [2] and 1.5 nM in assay [3].
Consider `Cc1ccccc1N=C1NCCN1` [Compound 3a, 2-(2-methylphenylimino)-imidazolidine], for which the inhibition constant Ki in assay [1] turned out to be 2170 nM; in assay [2] it was 7.5 nM; in assay [3] it was 25.3 nM.
